Data from patent US9562899B2, “Method of detecting OXA-048 carbapenemase producing bacteria” (BIOMÉRIEUX, priority 2012, dated 2017).

Experiments:
Assay type in all cases: cell-based, Enterobacteriaceae
[1] = test system: strains with impermeability-mediated resistance (IR); details: strains with impermeability-mediated resistance to carbapenems (IR)
Excerpt: (§1) Optimization of the Detection Specificity by Introducing Specific Inhibitors Inhibition of Class B Strains (NDM, VIM, IMP) by Adding EDTA
(§2) Identical to that used to determine the temocillin MICs by agar dilution (example 1).
(§3) For each temocillin concentration, the following concentrations of active EDTA will be tested in the form of disodium EDTA: 0, 1.77, 2.12, 2.47 and 2.83 mmol/l.
(§4) Method: identical to the method used in example 1.

[2] = test system: NDM-1 strains; details: class B CPEs of NDM type; proportionally to the EDTA concentration used
Excerpt: as §1, §2, §3, §4

[3] = test system: VIM strains; details: class B CPEs of VIM type; proportionally to the EDTA concentration used
Excerpt: as §1, §2, §3, §4

O=C(O)CN(CCN(CC(=O)O)CC(=O)O)CC(=O)O [EDTA]
effect of EDTA on temocillin MIC [1]: slight increase in the MICs
effect of EDTA on temocillin MIC [2]: decrease in their MIC
effect of EDTA on temocillin MIC [3]: decrease in their MIC
